Reference: patent US8044073B2, “Aminobenzimidazoles and benzimidazoles as inhibitors of respiratory syncytial virus replication” (Tibotec Pharmaceuticals, priority 2003, dated 2011)

Each compound was assayed on Respiratory Syncytial Virus (assay: In vitro screening for activity against RSV (tetrazolium-based colorimetric assay, protection against viral cytopathology)). Settings: Table 1; RSV in HeLa cells, MTT, seven days after infection; pEC50 = -log of EC50 in molar units.
Assay type: cell-based
Text: The percent protection against cytopathology caused by viruses (antiviral activity or EC50) achieved by tested compounds and their cytotoxicity (CC50) are both calculated from dose-response curves. The selectivity of the antiviral effect is represented by the selectivity index (SI), calculated by dividing the CC50 (cytotoxic dose for 50% of the cells) by the EC50 (antiviral activity for 50% of the cells). The tables in the above experimental part list the category to which each of the prepared compounds belong: Compounds belonging to activity category “A” have a pEC50 (−log of EC50 when expressed in molar units) equal to or more than 7. Compounds belonging to activity category “B” have a pEC50 value between 6 and 7.
Automated tetrazolium-based colorimetric assays were used for determination of EC50 and CC50 of test compounds. Flat-bottom, 96-well plastic microtiter trays were filled with 180 μl of Eagle's Basal Medium, supplemented with 5% FCS (0% for FLU) and 20 mM Hepes buffer. Subsequently, stock solutions (7.8× final test concentration) of compounds were added in 45 μl volumes to a series of triplicate wells so as to allow simultaneous evaluation of their effects on virus- and mock-infected cells. Five five-fold dilutions were made directly in the microtiter trays using a robot system. Untreated virus controls, and HeLa cell controls were included in each test. Approximately 100 TCID50 of Respiratory Syncytial Virus was added to two of the three rows in a volume of 50 μl. The same volume of medium was added to the third row to measure the cytotoxicity of the compounds at the same concentrations as those used to measure the antiviral activity. After two hours of incubation, a suspension (4×10^5 cells/ml) of HeLa cells was added to all wells in a volume of 50 μl. The cultures were incubated at 37° C. in a 5% CO2 atmosphere. Seven days after infection the cytotoxicity and the antiviral activity was examined spectrophotometrically. To each well of the microtiter tray, 25 μl of a solution of MTT (3-(4,5-dimethylthiazol-2-yl)-2,5-diphenyltetrazolium bromide) was added. The trays were further incubated at 37° C. for 2 hours, after which the medium was removed from each cup. Solubilization of the formazan crystals was achieved by adding 100 μl 2-propanol. Complete dissolution of the formazan crystals were obtained after the trays have been placed on a plate shaker for 10 min. Finally, the absorbances were read in an eight-channel computer-controlled photometer (Multiskan MCC, Flow Laboratories) at two wavelengths (540 and 690 nm). The absorbance measured at 690 nm was automatically subtracted from the absorbance at 540 nm, so as to eliminate the effects of non-specific absorption.
The percent protection against cytopathology caused by viruses (antiviral activity or EC50) achieved by tested compounds and their cytotoxicity (CC50) were both calculated from dose-response curves. The selectivity of the antiviral effect is represented by the selectivity index (SI), calculated by dividing the CC50 (cytotoxic dose for 50% of the cells) by the EC50 (antiviral activity for 50% of the cells).

In order of falling Activity:
1. Cc1cccc(NCc2ccc3nc(N)n(Cc4nc(C)ccc4O)c3c2)c1 [Compound 1, 2-[2-Amino-6-(mtolylamino-methyl)-benzoimidazol-1-ylmethyl]-6-methyl-pyridin-3-ol]  8.6
2. Cc1ccc(O)c(Cn2c(N)nc3ccc(CNc4cc(Cl)cc(Cl)c4)cc32)n1 [Compound 2]  8.6
3. Cc1ccc(O)c(Cn2c(N)nc3ccc(CNc4cccc(Br)c4)cc32)n1 [Compound 3]  8.6
4. Cc1ccc(O)c(Cn2c(N)nc3ccc(CNc4cccc(Cl)c4)cc32)n1 [Compound 5]  8.5
5. C#Cc1cccc(NCc2ccc3nc(N)n(Cc4nc(C)ccc4O)c3c2)c1 [Compound 6]  8.5
6. CC(=O)O.COc1ccccc1NCc1ccc2nc(N)n(Cc3nc(C)ccc3O)c2c1 [Compound 7]  8.5
7. Cc1cc(C)cc(NCc2ccc3nc(N)n(Cc4nc(C)ccc4O)c3c2)c1 [Compound 9]  8.4
8. Cc1ccc(O)c(Cn2c(N)nc3ccc(CNc4ccc(S(N)(=O)=O)cc4)cc32)n1 [Compound 10]  8.4
9. Cc1ccc(O)c(Cn2c(N)nc3ccc(CNc4ccccc4CO)cc32)n1 [Compound 11]  8.4
10. CC(=O)O.CCc1ccccc1NCc1ccc2nc(N)n(Cc3nc(C)ccc3O)c2c1 [Compound 12]  8.4
11. Cc1ccc(O)c(Cn2c(N)nc3ccc(CNc4ccc(C#N)cc4)cc32)n1 [Compound 13]  8.4
12. CCOC(=O)c1ccc(NCc2ccc3nc(N)n(Cc4nc(C)ccc4O)c3c2)c(O)c1 [Compound 14]  8.3
13. CSc1cccc(NCc2ccc3nc(N)n(Cc4nc(C)ccc4O)c3c2)c1 [Compound 15]  8.3
14. CCc1cccc(CC)c1NCc1ccc2nc(N)n(Cc3nc(C)ccc3O)c2c1 [Compound 17]  8.1
15. CCc1cccc(NCc2ccc3nc(N)n(Cc4nc(C)ccc4O)c3c2)c1 [Compound 18]  8.0
16. Cc1ccc(O)c(Cn2c(N)nc3ccc(CNc4cccc(C)c4C)cc32)n1 [Compound 19]  8.0
17. Cc1ccc(O)c(Cn2c(N)nc3ccc(CNc4ccccc4Br)cc32)n1 [Compound 20]  8.0
18. Cc1ccc(O)c(Cn2c(N)nc3ccc(CNc4ccccc4)cc32)n1 [Compound 21]  7.9
19. Cc1ccc(O)c(Cn2c(N)nc3ccc(CNc4cccc(F)c4)cc32)n1 [Compound 22]  7.9
20. Cc1ccc(O)c(Cn2c(N)nc3ccc(CNc4ccc(C)c(C)c4)cc32)n1 [Compound 23]  7.9
21. CCOc1cccc(NCc2ccc3nc(N)n(Cc4nc(C)ccc4O)c3c2)c1 [Compound 24]  7.9
22. Cc1ccc(O)c(Cn2c(N)nc3ccc(CNc4ccccc4C#N)cc32)n1 [Compound 25]  7.9
23. Cc1ccc(O)c(Cn2c(N)nc3ccc(CNc4cccc(CO)c4)cc32)n1 [Compound 26]  7.9
24. Cc1ccc(O)c(Cn2c(N)nc3ccc(CNc4cccc(NS(C)(=O)=O)c4)cc32)n1 [Compound 27]  7.9
25. COc1ccc(NCc2ccc3nc(N)n(Cc4nc(C)ccc4O)c3c2)cc1F [Compound 28]  7.8
26. Cc1ccc(O)c(Cn2c(N)nc3ccc(CNc4cccc(Cl)c4C)cc32)n1 [Compound 29]  7.8
27. Cc1ccc(O)c(Cn2c(N)nc3ccc(CNc4cccc(SC(F)(F)F)c4)cc32)n1 [Compound 30]  7.8
28. Cc1ccc(O)c(Cn2c(N)nc3ccc(CNc4ccccc4C(C)C)cc32)n1 [Compound 32]  7.8
29. Cc1ccc(O)c(Cn2c(N)nc3ccc(CNc4cccc(S(=O)(=O)CCO)c4)cc32)n1 [Compound 33]  7.8
30. COc1cc(NCc2ccc3nc(N)n(Cc4nc(C)ccc4O)c3c2)cc(OC)c1 [Compound 34]  7.7
31. CC(=O)Nc1cccc(NCc2ccc3nc(N)n(Cc4nc(C)ccc4O)c3c2)c1 [Compound 35]  7.7
32. Cc1ccc(O)c(Cn2c(N)nc3ccc(CNc4ccc5c(c4)CCC5)cc32)n1 [Compound 36]  7.7
33. Cc1ccc(O)c(Cn2c(N)nc3ccc(CNc4cc(Br)cc(C(F)(F)F)c4)cc32)n1 [Compound 37]  7.7
34. Cc1ccc(O)c(Cn2c(N)nc3ccc(CNc4ccccc4C(N)=O)cc32)n1 [Compound 39]  7.7
35. Cc1ccc(O)c(Cn2c(N)nc3ccc(CNc4ccccc4F)cc32)n1 [Compound 40]  7.7
36. Cc1ccc(O)c(Cn2c(N)nc3ccc(CNc4cccc(C(=N)N)c4)cc32)n1 [Compound 41]  7.7
37. CC(=O)c1cccc(NCc2ccc3nc(N)n(Cc4nc(C)ccc4O)c3c2)c1 [Compound 42]  7.6
38. Cc1ccc(O)c(Cn2c(N)nc3ccc(CNc4ccc5c(c4)OCCO5)cc32)n1 [Compound 43]  7.6
39. Cc1ccc(O)c(Cn2c(N)nc3ccc(CNc4cccc5cccnc45)cc32)n1 [Compound 44]  7.6
40. Cc1ccc(O)c(Cn2c(N)nc3ccc(CNc4cc(F)cc(C(F)(F)F)c4)cc32)n1 [Compound 45]  7.6
41. Cc1ccc(O)c(Cn2c(N)nc3ccc(CNc4cccc(CC(=O)O)c4)cc32)n1 [Compound 46]  7.6
42. CCCCNS(=O)(=O)c1cccc(NCc2ccc3nc(N)n(Cc4nc(C)ccc4O)c3c2)c1 [Compound 47]  7.6
43. Cc1ccc(O)c(Cn2c(N)nc3ccc(CNc4ccccc4C(F)(F)F)cc32)n1 [Compound 48]  7.6
44. Cc1ccc(O)c(Cn2c(N)nc3ccc(CNc4cc(F)cc(F)c4)cc32)n1 [Compound 49]  7.5
45. CCc1cc(Br)ccc1NCc1ccc2nc(N)n(Cc3nc(C)ccc3O)c2c1 [Compound 52]  7.5
46. CC(=O)Nc1ccc(NCc2ccc3nc(N)n(Cc4nc(C)ccc4O)c3c2)cc1 [Compound 53]  7.5
47. Cc1ccc(O)c(Cn2c(N)nc3ccc(CNc4ccc(Br)cc4)cc32)n1 [Compound 54]  7.5
48. Cc1ccc(O)c(Cn2c(N)nc3ccc(CNc4ccc(F)c(F)c4)cc32)n1 [Compound 55]  7.4
49. Cc1ccc(O)c(Cn2c(N)nc3ccc(CNc4ccc(Br)c(C)c4)cc32)n1 [Compound 56]  7.4
50. COc1cc(NCc2ccc3nc(N)n(Cc4nc(C)ccc4O)c3c2)cc(C(F)(F)F)c1 [Compound 57]  7.4
51. CC(=O)O.Cc1ccc(O)c(Cn2c(N)nc3ccc(CNc4ccccc4-c4ccccc4)cc32)n1 [Compound 58]  7.4
52. CCOC(=O)c1cccc(NCc2ccc3nc(N)n(Cc4nc(C)ccc4O)c3c2)c1 [Compound 59]  7.3
53. Cc1ccc(O)c(Cn2c(N)nc3ccc(CNc4ccc(C)c(F)c4)cc32)n1 [Compound 60]  7.3
54. COc1ccc(NCc2ccc3nc(N)n(Cc4nc(C)ccc4O)c3c2)cc1OC [Compound 61]  7.3
55. Cc1ccc(O)c(Cn2c(N)nc3ccc(CNc4ccc(Br)c(C(F)(F)F)c4)cc32)n1 [Compound 62]  7.3
56. Cc1ccc(O)c(Cn2c(N)nc3ccc(CNc4ccc(Br)c(F)c4)cc32)n1 [Compound 63]  7.3
57. COC(=O)c1cc(NCc2ccc3nc(N)n(Cc4nc(C)ccc4O)c3c2)cc(C(=O)OC)c1 [Compound 64]  7.3
58. Cc1ccc(NCc2ccc3nc(N)n(Cc4nc(C)ccc4O)c3c2)cc1 [Compound 67]  7.3
59. CCOC(=O)c1ccccc1NCc1ccc2nc(N)n(Cc3nc(C)ccc3O)c2c1 [Compound 68]  7.2
60. CC(=O)c1ccccc1NCc1ccc2nc(N)n(Cc3nc(C)ccc3O)c2c1 [Compound 69]  7.2
61. Cc1ccc(O)c(Cn2c(N)nc3ccc(CNc4ccccc4C(C)(C)C)cc32)n1 [Compound 70]  7.2
62. Cc1ccc(O)c(Cn2c(N)nc3ccc(CNc4cccc(Oc5ccccc5)c4)cc32)n1 [Compound 71]  7.1
63. Cc1ccc(O)c(Cn2c(N)nc3ccc(CNc4cc(Cl)c(O)c(Cl)c4)cc32)n1 [Compound 72]  7.1
64. Cc1ccc(O)c(Cn2c(N)nc3ccc(CNc4cc(C(F)(F)F)cc(C(F)(F)F)c4)cc32)n1 [Compound 74]  7.1
65. COc1ccc(NCc2ccc3nc(N)n(Cc4nc(C)ccc4O)c3c2)cc1O [Compound 75]  7
